# Assays:
# [1] = target: T1, cAMP and cAMP-inhibited cGMP 3',5'-cyclic phosphodiesterase 10A (Rattus norvegicus, UniProt Q9QYJ6); assay: In Vitro Assay: Rat recombinant PDE10a (rPDE10a) was expressed in Sf9 cells using a recombinant rPDE10a baculovirus construct. Cells were harvested after 48 h of infection and the rPDE10a protein was purified by metal chelate chromatography on Ni-sepharose 6FF. Tested compounds were dissolved and diluted in 100% DMSO to a concentration 100 fold of the final concentration in the assay. Compound dilutions (0.4 uL) were added in 384 well plates to 20 uL of incubation buffer (50 mM Tris pH 7.8, 8.3 mM MgCl2, 1.7 mM EGTA). 10 uL of rPDE10a enzyme in incubation buffer was added and the reaction was started by addition of 10 uL substrate to a final concentration of 60 nM cAMP and 0.008 uCi3H-cAMP. The reaction was incubated for 60 min at rt. After incubation, the reaction was stopped with 20 uL of 17.8 mg/mL PDE SPA beads. After sedimentation of the beads during 30 min the radioactivity was measured in a Perkin Elmer Topcount scintillation counter.
# T1 sequence (Q9QYJ6 whole entry): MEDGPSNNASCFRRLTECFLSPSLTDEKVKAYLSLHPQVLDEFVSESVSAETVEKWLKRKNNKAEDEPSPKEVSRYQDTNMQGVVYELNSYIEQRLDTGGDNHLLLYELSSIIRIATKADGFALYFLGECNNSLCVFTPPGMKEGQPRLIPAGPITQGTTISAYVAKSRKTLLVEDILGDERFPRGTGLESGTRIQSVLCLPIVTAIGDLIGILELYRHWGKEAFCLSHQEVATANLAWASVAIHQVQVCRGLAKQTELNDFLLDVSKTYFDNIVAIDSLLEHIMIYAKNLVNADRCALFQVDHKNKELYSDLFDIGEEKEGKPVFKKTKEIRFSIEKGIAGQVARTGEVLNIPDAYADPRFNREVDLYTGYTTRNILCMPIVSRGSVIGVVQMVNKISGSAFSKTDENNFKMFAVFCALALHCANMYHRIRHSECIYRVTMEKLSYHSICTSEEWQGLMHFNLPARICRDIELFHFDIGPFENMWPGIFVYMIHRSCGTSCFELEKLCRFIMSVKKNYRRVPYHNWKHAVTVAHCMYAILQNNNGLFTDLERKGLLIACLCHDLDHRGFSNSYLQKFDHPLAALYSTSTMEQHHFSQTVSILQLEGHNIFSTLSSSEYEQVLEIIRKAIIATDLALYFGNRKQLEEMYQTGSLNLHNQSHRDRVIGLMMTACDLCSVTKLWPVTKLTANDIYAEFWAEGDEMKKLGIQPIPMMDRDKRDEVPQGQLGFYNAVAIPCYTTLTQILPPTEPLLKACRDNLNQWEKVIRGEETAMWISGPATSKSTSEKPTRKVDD
# [2] = target: cAMP and cAMP-inhibited cGMP 3',5'-cyclic phosphodiesterase 10A (Homo sapiens, UniProt Q9Y233); assay: In Vitro Assay: Human recombinant PDE10A2 was expressed in Sf9 cells, using a recombinant baculovirus construct containing the full length sequence containing a 6ÿHis sequence following the start Met to allow metal affinity purification of the recombinant protein. Cells were harvested and the phosphodiesterase protein was purified by metal chelate chromatography on Ni-sepharose 6FF.The affinity of the compounds of Formula (I) for phophodiesterases (PDE) was measured by a scintillation proximity assay (SPA). PDE Yttrium Silicate SPA beads allow PDE activity to be measured by direct binding of the primary phosphate groups of non-cyclic AMP or GMP to the beads via a complex iron chelation mechanism. The amount of bound tritiated product ([3H]-AMP) is measured by liquid scintillation counting.The compounds were dissolved and diluted in 100% DMSO in polystyrene plates to a concentration of 100-fold the final concentration in the assay. Human PDE10A enzyme solution (10 uL) was added.
# cAMP and cAMP-inhibited cGMP 3',5'-cyclic phosphodiesterase 10A (Homo sapiens, UniProt Q9Y233), sequence (Q9Y233 whole entry): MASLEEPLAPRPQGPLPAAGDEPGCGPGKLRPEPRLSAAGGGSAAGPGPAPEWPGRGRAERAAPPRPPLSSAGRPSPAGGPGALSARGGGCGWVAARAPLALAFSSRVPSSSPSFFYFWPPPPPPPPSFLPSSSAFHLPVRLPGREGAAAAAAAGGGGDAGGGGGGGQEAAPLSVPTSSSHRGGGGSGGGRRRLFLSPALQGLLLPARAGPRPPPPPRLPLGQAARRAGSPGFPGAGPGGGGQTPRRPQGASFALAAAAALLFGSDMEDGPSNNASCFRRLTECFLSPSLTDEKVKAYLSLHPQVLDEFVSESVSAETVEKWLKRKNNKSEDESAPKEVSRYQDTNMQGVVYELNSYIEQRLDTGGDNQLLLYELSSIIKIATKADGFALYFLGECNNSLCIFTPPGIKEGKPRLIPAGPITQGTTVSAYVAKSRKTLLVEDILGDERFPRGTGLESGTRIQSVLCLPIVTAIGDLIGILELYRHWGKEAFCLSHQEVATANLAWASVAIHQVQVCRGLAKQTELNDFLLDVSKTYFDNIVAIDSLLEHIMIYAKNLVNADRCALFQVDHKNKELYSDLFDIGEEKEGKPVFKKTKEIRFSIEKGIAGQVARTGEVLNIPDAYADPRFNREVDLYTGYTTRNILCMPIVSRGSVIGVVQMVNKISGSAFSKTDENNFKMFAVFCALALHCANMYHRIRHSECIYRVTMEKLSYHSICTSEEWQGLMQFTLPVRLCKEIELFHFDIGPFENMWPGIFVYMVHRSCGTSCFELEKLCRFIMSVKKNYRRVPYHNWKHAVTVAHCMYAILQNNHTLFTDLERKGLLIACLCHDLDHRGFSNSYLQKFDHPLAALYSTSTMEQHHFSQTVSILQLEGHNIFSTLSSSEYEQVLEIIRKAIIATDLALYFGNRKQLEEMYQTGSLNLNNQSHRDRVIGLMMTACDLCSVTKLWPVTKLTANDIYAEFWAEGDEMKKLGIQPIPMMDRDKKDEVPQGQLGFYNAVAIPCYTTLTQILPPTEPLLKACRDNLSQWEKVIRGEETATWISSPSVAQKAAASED
IC50 [1],IC50 [2],Compound
1 nM,,O=C(O)c1ccc(-c2c(CSc3ccc4ccccc4n3)nc3c(N4CCOCC4)ccnn23)cc1
2 nM,,O=C(O)c1cccc2nc(/C=C/c3nc4c(N5CCOCC5)cc(Cl)nn4c3-c3cccnc3)ccc12
1 nM,3 nM,C(#Cc1nc2c(N3CCOCC3)ccnn2c1-c1ccc(N2CCNCC2)nc1)c1ccc2ccccc2n1
5 nM,7 nM,O=C(O)CN1CCC(c2c(C#Cc3ccc4ccccc4n3)nc3c(N4CCOCC4)ccnn23)CC1
,1 nM,COc1cccc(-c2c(/C=C/c3ccc4c(C(=O)O)cccc4n3)nc3c(N4CCOCC4)ccnn23)c1
4 nM,6 nM,C(=C\c1nc2c(N3CCOCC3)ccnn2c1-c1ccc(Sc2nnc[nH]2)nc1)/c1ccc2ccccc2n1

Compound,IC50 [1],IC50 [2]
O=C(O)c1cccc2nc(/C=C/c3nc4c(N5CCOCC5)ccnn4c3-c3ccccc3)ccc12,1 nM,< 1 nM
N#Cc1ccc(-c2c(/C=C/c3ccc4c(C(=O)O)cccc4n3)nc3c(N4CCOCC4)ccnn23)cc1,1 nM,

# From ChEMBL document CHEMBL3886382, “PDE 10a inhibitors for the treatment of type II diabetes” (2015)
